T/C data for 20 compounds are collected here from PubChem BioAssay AID256 (DTP/NCI, 2004).

The assay relates to CD2F1 mice, L1210 leukemia ip, survival T/C. Description: NCI In Vivo Anticancer Drug Screen. Data for tumor model L1210 Leukemia (intraperitoneal) in CD2F1 (CDF1) mice. Particulars: higher = longer survival. An outline of the steps:
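Tumor-bearing mice (transplanted tumor) were split into treated and vehicle control groups, and the measured endpoint of each treated group was divided by that of its vehicle controls.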

[1] abbreviates: endpoint: mean survival time, dose: 25.0 mg/kg/injection, schedule: Q01DX009 (ip), vehicle: saline.
Where [2] appears, read: endpoint: mean survival time, dose: 50.0 mg/kg/injection, schedule: Q01DX009 (ip), vehicle: saline.
The mark [3] stands for this setting: endpoint: mean survival time, dose: 50.0 mg/kg/injection, schedule: Q04DX003 (ip), vehicle: saline.
Where [4] appears, read: endpoint: mean survival time, dose: 100.0 mg/kg/injection, schedule: Q04DX003 (ip), vehicle: saline with Tween-80.
Setting [5] is: endpoint: mean survival time, dose: 12.5 mg/kg/injection, schedule: Q01DX009 (ip), vehicle: saline with Tween-80.
Where [6] appears, read: endpoint: mean survival time, dose: 25.0 mg/kg/injection, schedule: Q01DX009 (ip), vehicle: saline with Tween-80.
The mark [7] stands for this setting: endpoint: mean survival time, dose: 50.0 mg/kg/injection, schedule: Q01DX009 (ip), vehicle: saline with Tween-80.
The mark [8] stands for this setting: endpoint: mean survival time, dose: 100.0 mg/kg/injection, schedule: Q04DX002 (ip), vehicle: saline with Tween-80.
The mark [9] stands for this setting: endpoint: mean survival time, dose: 200.0 mg/kg/injection, schedule: Q04DX002 (ip), vehicle: saline with Tween-80.
Setting [10] is: endpoint: mean survival time, dose: 100.0 mg/kg/injection, schedule: Q01DX009 (ip), vehicle: saline with Tween-80.
[11] abbreviates: endpoint: mean survival time, dose: 200.0 mg/kg/injection, schedule: Q04DX003 (ip), vehicle: saline with Tween-80.
Where [12] appears, read: endpoint: mean survival time, dose: 50.0 mg/kg/injection, schedule: Q01DX009 (ip), vehicle: Klucel (hydroxypropylcellulose) (HPC).
[13] abbreviates: endpoint: mean survival time, dose: 100.0 mg/kg/injection, schedule: Q01DX009 (ip), vehicle: Klucel (hydroxypropylcellulose) (HPC).
Setting [14] is: endpoint: mean survival time, dose: 200.0 mg/kg/injection, schedule: Q01DX009 (ip), vehicle: Klucel (hydroxypropylcellulose) (HPC).
[15] abbreviates: endpoint: mean survival time, dose: 400.0 mg/kg/injection, schedule: Q04DX003 (ip), vehicle: saline with Tween-80.

Where “and” joins values, the source holds several entries; their conditions need not be identical. Equal entries are not always repeated. Inconclusive results and toxic doses are left out.

Turning to `O=C(O)c1c(F)c(F)c(F)c(C(=O)O)c1F`, the T/C by setting is: (endpoint: mean survival time, dose: 12.5 mg/kg/injection, schedule: Q01DX009 (ip), vehicle: saline) 89 % of control; under setting [1], 95 % of control; (endpoint: mean survival time, dose: 25.0 mg/kg/injection, schedule: Q04DX003 (ip), vehicle: saline) 89 % of control; under setting [2], 95 % of control; under setting [3], 88 % of control; under setting [4], 93 % of control.

With `Cc1ccc(NC(=O)c2cccc(C(=O)Nc3ccc(C)cc3C)c2)c(C)c1`, the T/C runs as follows: under setting [5], 94 % of control; under setting [6], 90 % of control; under setting [7], 89 % of control.

For the compound `COc1ccc(NC(=O)Oc2ccc(SC)cc2)cc1`, the T/C reads like this: under setting [8], 98 % of control; under setting [9], 102 % of control; (endpoint: mean survival time, dose: 400.0 mg/kg/injection, schedule: Q04DX002 (ip), vehicle: saline with Tween-80) 98 % of control.

On to `O=c1[nH]ccc2occc12`, for which the T/C was 101 % of control under setting [7], 102 % of control under setting [10], 105 % of control under setting [4] and 109 % of control under setting [11].

`CC1OC(C)(C)OC1C(=O)OCc1ccccc1` (stereo not given): the T/C is, setting by setting: (endpoint: mean survival time, dose: 25.0 mg/kg/injection, schedule: Q01DX009 (ip), vehicle: Klucel (hydroxypropylcellulose) (HPC)) 96 % of control; under setting [12], 93 % of control; under setting [13], 99 % of control; under setting [14], 94 % of control; (endpoint: mean survival time, dose: 400.0 mg/kg/injection, schedule: Q01DX009 (ip), vehicle: Klucel (hydroxypropylcellulose) (HPC)) 99 % of control.

For the compound `Cc1c(-c2ccc(C3CCCCC3)cc2)nc2ccc(F)cc2c1C(=O)O`, the T/C was 109 % of control (endpoint: median survival time, dose: 12.5 mg/kg/injection, schedule: Q01DX005 (ip), vehicle: Klucel (hydroxypropylcellulose) (HPC)); 114 % of control and 104 % of control (endpoint: median survival time, dose: 12.5 mg/kg/injection, schedule: Q01DX005 (ip), vehicle: sodium bicarbonate); 110 % of control (endpoint: median survival time, dose: 25.0 mg/kg/injection, schedule: Q01DX005 (ip), vehicle: Klucel (hydroxypropylcellulose) (HPC)); 122 % of control and 108 % of control (endpoint: median survival time, dose: 25.0 mg/kg/injection, schedule: Q01DX005 (ip), vehicle: sodium bicarbonate); 123 % of control and 124 % of control and 104 % of control (endpoint: median survival time, dose: 50.0 mg/kg/injection, schedule: Q01DX005 (ip), vehicle: sodium bicarbonate); 120 % of control and 109 % of control (endpoint: median survival time, dose: 100.0 mg/kg/injection, schedule: Q01DX005 (ip), vehicle: sodium bicarbonate). In addition, the T/C (endpoint: median survival time, dose: 100.0 mg/kg/injection, schedule: Q01DX009 (ip), vehicle: Klucel (hydroxypropylcellulose) (HPC)) is 182 % of control; the T/C (endpoint: median survival time, dose: 200.0 mg/kg/injection, schedule: Q01DX009 (ip), vehicle: Klucel (hydroxypropylcellulose) (HPC)) is 183 % of control; the T/C (endpoint: median survival time, dose: 400.0 mg/kg/injection, schedule: Q01DX009 (ip), vehicle: Klucel (hydroxypropylcellulose) (HPC)) is 89 % of control.

As for `C[n+]1ccc(/C=C\Nc2ccccn2)cc1`, the T/C reads like this: (endpoint: mean survival time, dose: 75.0 mg/kg/injection, schedule: Q01DX001 (ip), vehicle: saline) 103 % of control; (endpoint: mean survival time, dose: 150.0 mg/kg/injection, schedule: Q01DX001 (ip), vehicle: saline) 108 % of control.

Turning to `COC(=O)/N=C(/N)SC`, the T/C is 100 % of control under setting [4], 106 % of control under setting [11] and 97 % of control under setting [15].

For `S=C(N/N=C1\C=Cc2ccccc2C1)N/N=C1\C=Cc2ccccc2C1`, the T/C reads like this: under setting [3], 87 % of control; (endpoint: mean survival time, dose: 100.0 mg/kg/injection, schedule: Q04DX003 (ip), vehicle: saline) 93 % of control; (endpoint: mean survival time, dose: 200.0 mg/kg/injection, schedule: Q04DX003 (ip), vehicle: saline) 93 % of control.

Regarding `O=P1(CCBr)NCCCO1` (stereo not given), the T/C was 100 % of control (endpoint: mean survival time, dose: 62.5 mg/kg/injection, schedule: Q01DX001 (ip), vehicle: water); 97 % of control (endpoint: mean survival time, dose: 125.0 mg/kg/injection, schedule: Q01DX001 (ip), vehicle: water); 94 % of control (endpoint: mean survival time, dose: 250.0 mg/kg/injection, schedule: Q01DX001 (ip), vehicle: water); 97 % of control (endpoint: mean survival time, dose: 500.0 mg/kg/injection, schedule: Q01DX001 (ip), vehicle: water); 102 % of control (endpoint: mean survival time, dose: 750.0 mg/kg/injection, schedule: Q01DX001 (ip), vehicle: water).

As to `O=C([O][Sb]([O]C(=O)C(F)(F)F)([c]1ccccc1)([c]1ccccc1)[c]1ccccc1)C(F)(F)F`, the T/C (endpoint: mean survival time, dose: 50.0 mg/kg/injection, schedule: Q04DX002 (ip), vehicle: saline with Tween-80) is 93 % of control; the T/C under setting [8] is 93 % of control; the T/C under setting [9] is 97 % of control.

Turning to `OCC1OC(n2cnc3c(=S)nc(NO)[nH]c32)C(O)C1O` (stereo not given), the T/C was 196 % of control and 237 % of control (endpoint: mean survival time, dose: 6.25 mg/kg/injection, schedule: Q01DX005 (ip), vehicle: saline with Tween-80); 164 % of control and 263 % of control (endpoint: mean survival time, dose: 12.5 mg/kg/injection, schedule: Q01DX005 (ip), vehicle: saline with Tween-80); 102 % of control (endpoint: mean survival time, dose: 25.0 mg/kg/injection, schedule: Q01DX005 (ip), vehicle: saline with Tween-80); 89 % of control (endpoint: mean survival time, dose: 50.0 mg/kg/injection, schedule: Q01DX005 (ip), vehicle: saline with Tween-80).

On to `COB1OB(OC)OB(OC)O1`, for which the T/C runs as follows: under setting [7], 90 % of control; under setting [10], 93 % of control; (endpoint: mean survival time, dose: 200.0 mg/kg/injection, schedule: Q01DX009 (ip), vehicle: saline with Tween-80) 93 % of control; (endpoint: mean survival time, dose: 400.0 mg/kg/injection, schedule: Q01DX009 (ip), vehicle: saline with Tween-80) 93 % of control.

As to `COC(=O)C(C)(C)Br`, the T/C is, setting by setting: under setting [4], 97 % of control; under setting [11], 102 % of control; under setting [15], 102 % of control.

In the case of `CC(=O)OCC1OC(n2cnc3c(NC(=O)c4ccccc4)ncnc32)C(OC(C)=O)C1OC(C)=O` (stereo not given), the T/C by setting is: (endpoint: mean survival time, dose: 12.5 mg/kg/injection, schedule: Q01DX005 (ip), vehicle: distilled water + Tween-80) 93 % of control; (endpoint: mean survival time, dose: 25.0 mg/kg/injection, schedule: Q01DX005 (ip), vehicle: distilled water + Tween-80) 100 % of control; (endpoint: mean survival time, dose: 50.0 mg/kg/injection, schedule: Q01DX005 (ip), vehicle: distilled water + Tween-80) 88 % of control; (endpoint: mean survival time, dose: 100.0 mg/kg/injection, schedule: Q01DX005 (ip), vehicle: distilled water + Tween-80) 94 % of control.

`Cc1cccc(/C(=C\c2ccc([N+](=O)[O-])cc2)C(=O)Nc2ccc(S(=O)(=O)F)c(C)c2)c1`: the T/C was 91 % of control under setting [12], 94 % of control under setting [13] and 112 % of control under setting [14].

For `Cc1cc(C)c(C#[N+][O-])c(C)c1`, the T/C reads like this: under setting [5], 97 % of control; under setting [6], 94 % of control; under setting [7], 91 % of control.

With `Cc1csc2[nH]c(=O)[nH]c(=O)c12`, the T/C reads like this: under setting [4], 96 % of control; under setting [11], 94 % of control; under setting [15], 87 % of control.

Turning to `Cc1cc(C)c(C(=O)CC(C)C)c(C)c1`, the T/C (endpoint: mean survival time, dose: 100.0 mg/kg/injection, schedule: Q01DX001 (ip), vehicle: saline) was 104 % of control; the T/C (endpoint: mean survival time, dose: 200.0 mg/kg/injection, schedule: Q01DX001 (ip), vehicle: saline) is 104 % of control; the T/C (endpoint: mean survival time, dose: 400.0 mg/kg/injection, schedule: Q01DX001 (ip), vehicle: saline) was 104 % of control.

For `CN(C)C(=O)c1cccc(NC(=O)NCc2cccc(N3C(N)=NC(N)=NC3(C)C)c2)c1`, the T/C reads like this: under setting [1], 94 % of control; under setting [2], 95 % of control.
